Reference: US20070134255A1 (priority 2003, published 2007)
Where two headings read alike, the source gives them in different places.

Experiments:
hMPV [1] = assay: Ribavirin as a prophylactic: hMPV infected Vero cells counted by immune fluorescence; type: cell-based, Human Metapneumovirus; settings: for reduction in number of infected cells: pre-incubation 2 h before infection, 100 TCID50 hMPV, day 1 post-infection, Vero cells
Description: (§1) Vero cells (African green monkey kidney cells) were maintained and passaged in Iscove's Modified Dulbecco's Medium (IMDM) containing L-glutamine (2 mM), penicillin (100 U/ml), streptomycin (100 μg/ml) and 10% fetal calf serum (FCS) and incubated in a humidified atmosphere at 37° C. Virus infection medium contained bovine serum albumin (BSA; 0.3%) and trypsin (2.5×10^−4%) instead of FCS. Human Metapneumovirus stocks were prepared by inoculating Vero cells with hMPV, and harvesting 7-10 days post-infection, when there were visible cytopathic effects. The virus was stored at −70° C. and titrated by end point dilution on Vero cells.
One day prior to infection, the cells were seeded in 24 well plates at 30-40% confluency, and incubated overnight at 37° C. The next day, cells were pre-incubated with fresh medium containing 0, 5, 25 or 50 μg/ml of Ribavirin for 2 hours prior to virus infection. Following this pre-incubation, cells were infected with 10 or 100 TCID50 (tissue culture infectious doses) of hMPV, in the continuing presence of Ribavirin. After 2 hours, the virus inoculum was washed off and fresh medium containing Ribavirin was put onto the cells.
(§2) The plates were incubated at 37° C. for 1 or 3 days. Medium was refreshed every second day and Ribavirin was maintained in the medium at all times at the appropriate concentration. After the indicated incubation period, medium was removed, the cells were washed with PBS and cells were fixed with 80% acetone. Staining for immune fluorescence analysis was performed by incubating infected cells with guinea pig anti-hMPV serum in PBS for 1 hour, followed by a FITC-labeled rabbit anti-guinea pig polyclonal antibody preparation (DAKO) in PBS for 1 hour. Background staining was finally performed with eriochrome black before analysis under an immune fluorescence microscope. Infected cells were counted in 5 fields under high power magnification (320×). Results are presented as the total number of infected cells counted in these 5 fields

hMPV [2] = assay: Ribavirin as a therapeutic (added post-infection): hMPV infected Vero cells counted by immune fluorescence; type: cell-based, Human Metapneumovirus; settings: for inhibition at 25 µg/mL: human metapneumovirus, Vero, read-out: inhibition of viral replication
Description: Percentage of cells infected with hMPV. Cells were infected with 30 TCID50 of hMPV and after 0, 2, 4, 8 and 16 hours, post-infection, 0, 5, 10, 25, 50 or 100 microgram of Ribavirin was added. Three days post-infection, cells were fixed and stained with a hMPV-specific polyclonal antibody, and the number of hMPV positive and negative cells were counted in 5 fields.
as §1
Cells were seeded in 24 well plates as described above. The next day, cells were inoculated with 10 or 100 TCID50 of hMPV in the absence of Ribavirin. Two hours post-infection, the supernatant was aspirated and the cells were washed in phosphate-buffered saline (PBS) to remove virus inoculum. Fresh medium was added and the cells were incubated at 37° C. At different time points (2, 4, 8 and 16 hours) after infection, Ribavirin was added to the cells to reach concentrations of 0, 5, 25 or 50 μg/ml.
as §2

hMPV strain NL/01/00 = assay: Inhibition of hMPV by Ribavirin and neutralizing antibodies in Vero cells (immunofluorescence, estimated percentages of infected cells); type: cell-based, Human Metapneumovirus
Description: Passaging and seeding Vero cells (clone 118) was done in standard DMEM medium, supplemented with 10% FCS, L-glutamin and antibiotics (penicillin and streptomycin). Cells were seeded approximately 1:4 in 48 wells plates, so that cells would be ±75% confluent the next day. Infecting cells was done in IMDM medium with […], Pen/Strep and L-glutamin.
[…]. Plates were finally spun at 1500 g for 5 minutes and incubated at 37C in a humidified atmosphere for 3 days. After 3 days, from duplicate wells of each experimental condition the cells and supernatant were harvested and frozen at −70 C. Aliquots from these virus cultures were used for RNA isolation and subsequent quantification of viral genomic copy numbers by real-time RT-PCR on a TAQMAN® machine. The other duplicate wells from each experimental condition were stained for hMPV by immunofluorescence and numbers of infected cells were counted under a fluorescence microscope. Briefly, cells were washed with PBS and fixed with 80% acetone, washed again and subsequently incubated with a guinea pig anti-hMPV serum. After removal of the antiserum, cells were incubated with a FITC-labeled rabbit-anti-guinea pig polyclonal antibody preparation, washed and analyzed.
Note: Indicated results are estimated percentages of infected cells. Viral genomic copy numbers remain to be determined by taqman analyses (to be done this week)

PIV type 3 (PIV3) = settings: cited from earlier work

Structure (SMILES): NC(=O)c1ncn([C@@H]2O[C@H](CO)[C@@H](O)[C@H]2O)n1 [Ribavirin]
- reduction in number of infected cells (hMPV [1]; 25 μg/ml Ribavirin): approximately 50%
- decrease in the number of infected cells (hMPV [1]; 50 μg/ml Ribavirin added 2 hrs prior to or at the same time as virus infection): up to 95%
- reduction in number of infected cells (hMPV [1]; 50 μg/ml Ribavirin): approximately 95%
- effect on number of infected cells compared with day 1 (hMPV [1]; day 3 after infection, cells infected with 10 or 100 TCID50): same effect
- inhibition of viral replication (hMPV [2]; Ribavirin 25 μg/ml added after 16 hrs, read 3 days post-infection): insignificantly
- reduction of infection (hMPV [2]; Ribavirin 100 μg/ml added 8 hrs post-infection, read 3 days post-infection): 80%
- reduction of infection (hMPV [2]; Ribavirin 100 μg/ml added 16 hrs post-infection, read 3 days post-infection): 50%
- reduction of infection (hMPV [2]; Ribavirin 100 μg/ml added at 0, 2 or 4 hours post-infection, read 3 days post-infection): 95%
- percentage of MPV-positive cells (hMPV [2]; Ribavirin 25 microgram/ml or higher, added 0-16 hours after infection, 3 days post-infection): greatly reduced
- concentration of Ribavirin needed to see a significant effect (hMPV [2]; added 8 or 16 hrs post-infection): 100 µg/mL
- inhibition at 25 µg/mL (hMPV [2]; Ribavirin 25 μg/ml added 4 or 8 hrs post-infection, read 3 days post-infection): 10%
- inhibition at 25 µg/mL (hMPV [2]; Ribavirin 25 μg/ml added at 0 or 2 hrs post-infection, read 3 days post-infection): 50%
- effect on the growth of hMPV in vero cells in vitro (hMPV strain NL/01/00; FIG. 3, 50 or 250 TCID50): profound effect
- inhibition at 25 µg/mL (hMPV strain NL/01/00; human metapneumovirus, Vero, 72 h, read-out: inhibition of viral proliferation): ~90%
- improvement in outcome (PIV type 3 (PIV3); Elizaga et al.: 18 of 24 PIV3 patients treated, starting three days after onset of symptoms): no improvement in outcome was observed
- viral shedding of treated and untreated patients (PIV type 3 (PIV3); Nichols et al.: 31 of 55 patients with PIV3 pneumonia treated within 48 hours of diagnosis): similar
